Like-named read-outs stand apart in the source and are kept apart here.
What was measured:
[1] = target: T1, human CHK1 (FL-CHK1) (Homo sapiens, UniProt O14757); experiment: CHK1 assay (coupled spectrophotometric, Syntide-2); type: biochemical; conditions: read-out: CHK-1 Ki
T1 construct: C-terminally His-tagged full-length human CHK1 (FL-CHK1); made in house; host or cells: baculovirus/insect cell system
T1 sequence (O14757 1-476): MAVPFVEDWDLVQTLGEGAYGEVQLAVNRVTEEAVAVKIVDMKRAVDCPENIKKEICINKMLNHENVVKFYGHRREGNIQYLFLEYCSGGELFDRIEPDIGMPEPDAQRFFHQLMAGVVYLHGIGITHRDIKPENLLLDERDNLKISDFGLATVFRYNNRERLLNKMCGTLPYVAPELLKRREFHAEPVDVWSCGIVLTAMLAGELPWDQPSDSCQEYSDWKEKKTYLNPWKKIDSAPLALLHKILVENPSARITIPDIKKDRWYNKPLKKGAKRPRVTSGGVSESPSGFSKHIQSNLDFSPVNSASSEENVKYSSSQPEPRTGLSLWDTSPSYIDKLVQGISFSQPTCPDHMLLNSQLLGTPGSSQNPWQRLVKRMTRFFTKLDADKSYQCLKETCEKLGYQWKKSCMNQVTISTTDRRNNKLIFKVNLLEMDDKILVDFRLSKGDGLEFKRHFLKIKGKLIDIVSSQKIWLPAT
In short: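 Full-length C-terminally His-tagged human CHK1 expressed in baculovirus/insect cells, used at 10 nM with Syntide-2 substrate. ADP formation coupled via PK/LDH to NADH oxidation, followed as absorbance decrease at 340 nm. Ki from initial rates at varying compound concentrations.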

[2] = target: T2, LCK tyrosine kinase (Homo sapiens, UniProt P06239, C224D/P223M); experiment: LCK spectrophotometric assay; type: biochemical; conditions: Table 1; for Ki: read-out: Lck-P Ki; for inhibition at 1 µM: compound concentration 1 μM, read-out: Lck-P % inhibition
T2 construct: starting from amino acid residue 223 to the end of the protein at residue 509; made in house; host or cells: insect cells
Description: The production of ADP from ATP that accompanies phosphoryl transfer was coupled to oxidation of NADH using phosphoenolpyruvate (PEP) and a system having pyruvate kinase (PK) and lactic dehydrogenase (LDH). The oxidation of NADH was monitored by following the decrease of absorbance at 340 nm (e340=6.22 cm^−1 mM^−1) using a Beckman DU 650 spectrophotometer. […] Ki values were determined by measuring enzyme activity in the presence of varying concentrations of test compounds. The data were analyzed using Enzyme Kinetic and Kaleidagraph software.
The spectrophotometric assay was carried out as described above for VEGF-R2, except for the following changes in concentration: LCK=60 nM, MgCl2=0 mM, poly(E4Y1)=20 mM.

[3] = target: unphosphorylated VEGF-R2Δ50 (FLVK) (Homo sapiens, UniProt P35968, DEL940-989/E990V); experiment: VEGF-R2 coupled spectrophotometric assay, unphosphorylated VEGF-R2Δ50 (FLVK); conditions: for Ki: FLVK Ki, Table 1
[4] = target: phosphorylated VEGF-R2Δ50 (FLVK-P) (Homo sapiens, UniProt P35968, DEL940-989/E990V); experiment: VEGF-R2 coupled spectrophotometric assay, phosphorylated VEGF-R2Δ50 (FLVK-P)
[5] = target: CDK4/Cyclin D3 complex (Homo sapiens, UniProt P11802); experiment: CDK4/Cyclin D assay ([32P]ATP, Rb fragment)
[6] = system: human umbilical vein endothelial cells (HUVEC); experiment: HUVEC proliferation assay (VEGF-stimulated, MTT); type: cell-based; conditions: Homo sapiens, HUVEC
[7] = target: human FGF-R1 (Homo sapiens, UniProt P11362, C488A/C584S/L457V); experiment: FGF-R spectrophotometric assay; conditions: for inhibition at 1 µM: read-out: FGF-P % inhibition, Table 1, compound concentration 1 μM
[8] = target: CDK1 (Homo sapiens, UniProt P06493); experiment: CDK1 inhibition; type: biochemical; conditions: Table 3
[9] = target: CDK2/Cyclin A (Homo sapiens, UniProt P24941); experiment: CDK2/Cyclin A assay ([32P]ATP, Rb fragment); type: biochemical; conditions: Table 3
[10] = Determination of inhibitor concentration in mouse plasma after intraperitoneal and oral dosing; type: in vivo; conditions: for concentration at 7 h: female
In short: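 Mice dosed intraperitoneally or orally; blood taken by ocular bleed at 0.5, 1 and 4 h and by intracardiac puncture at 7 h. Plasma extracted with ethyl acetate after internal standard and NaOH addition, analysed by HPLC or LC-MS against a mouse-plasma standard curve.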

[11] = system: retinal vasculature (VEGF dependent); experiment: In vivo assay of retinal vascular development in neonatal rats; conditions: P8 model; intravitreal; 5 mg/ml; vehicle PEG/water 50:50
[12] = Human liver microsome (HLM) assay; type: in vitro ADME; conditions: human liver microsomes, 5 μM test compound
In short: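 Compound metabolism in human liver microsomes measured in triplicate. Samples at 0 and 2 h centrifuged at 14000 g for 10 min and analysed by LC-MS.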

[13] = + albumin, read-out: HUVEC + albumin IC50
[14] = IP, 25 mg/kg, vehicle PEG400:H2O pH 2.3 60:40
[15] = PO, 50 mg/kg, vehicle PEG400:H2O pH 2.3 60:40
[16] = IP, 25 mg/kg, vehicle PEG400:H2O pH 2.3 60:40, read-out: Cmin (7 hr conc.)
[17] = PO, 50 mg/kg, vehicle PEG400:H2O pH 2.3 60:40, read-out: Cmin (7 hr conc.)
[18] = PO, 25 mg/kg, vehicle PEG400:H2O pH 2.3 30:70
[19] = PO, 25 mg/kg, vehicle PEG400:H2O pH 2.3 30:70, read-out: Cmin (7 hr conc.)

Sequence of human FGF-R1 (P11362 456-766 L457V/C488A/C584S): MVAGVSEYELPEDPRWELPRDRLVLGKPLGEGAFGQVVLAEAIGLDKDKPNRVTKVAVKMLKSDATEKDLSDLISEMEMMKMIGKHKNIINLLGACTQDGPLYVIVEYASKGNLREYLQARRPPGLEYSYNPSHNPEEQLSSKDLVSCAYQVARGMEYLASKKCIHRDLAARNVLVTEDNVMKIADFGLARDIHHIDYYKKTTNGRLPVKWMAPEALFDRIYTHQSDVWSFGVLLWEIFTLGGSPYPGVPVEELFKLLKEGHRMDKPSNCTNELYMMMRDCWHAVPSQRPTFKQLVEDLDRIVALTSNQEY
Sequence of unphosphorylated VEGF-R2Δ50 (FLVK) (P35968 with tags, fused parts or gaps DEL940-989/E990V limits assumed): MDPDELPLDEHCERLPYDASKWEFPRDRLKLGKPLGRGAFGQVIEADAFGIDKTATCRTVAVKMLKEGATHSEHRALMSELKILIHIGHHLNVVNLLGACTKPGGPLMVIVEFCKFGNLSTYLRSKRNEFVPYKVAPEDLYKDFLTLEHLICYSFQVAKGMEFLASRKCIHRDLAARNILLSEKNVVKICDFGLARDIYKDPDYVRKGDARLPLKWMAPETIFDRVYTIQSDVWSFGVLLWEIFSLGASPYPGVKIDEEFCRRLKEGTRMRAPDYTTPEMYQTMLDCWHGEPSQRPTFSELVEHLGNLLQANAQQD
Sequence of CDK1 (P06493 whole entry, species assumed, the tested form may be a part): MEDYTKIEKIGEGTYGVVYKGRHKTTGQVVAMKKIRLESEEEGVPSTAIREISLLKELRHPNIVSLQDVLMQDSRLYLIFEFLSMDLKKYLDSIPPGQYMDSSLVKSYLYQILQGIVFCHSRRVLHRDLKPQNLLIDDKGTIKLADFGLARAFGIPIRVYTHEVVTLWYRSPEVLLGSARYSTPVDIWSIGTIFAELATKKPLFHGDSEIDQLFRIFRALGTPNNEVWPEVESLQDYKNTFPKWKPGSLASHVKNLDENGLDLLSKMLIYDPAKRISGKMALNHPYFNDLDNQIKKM
Sequence of CDK1 (P14635 whole entry partner, species assumed, the tested form may be a part): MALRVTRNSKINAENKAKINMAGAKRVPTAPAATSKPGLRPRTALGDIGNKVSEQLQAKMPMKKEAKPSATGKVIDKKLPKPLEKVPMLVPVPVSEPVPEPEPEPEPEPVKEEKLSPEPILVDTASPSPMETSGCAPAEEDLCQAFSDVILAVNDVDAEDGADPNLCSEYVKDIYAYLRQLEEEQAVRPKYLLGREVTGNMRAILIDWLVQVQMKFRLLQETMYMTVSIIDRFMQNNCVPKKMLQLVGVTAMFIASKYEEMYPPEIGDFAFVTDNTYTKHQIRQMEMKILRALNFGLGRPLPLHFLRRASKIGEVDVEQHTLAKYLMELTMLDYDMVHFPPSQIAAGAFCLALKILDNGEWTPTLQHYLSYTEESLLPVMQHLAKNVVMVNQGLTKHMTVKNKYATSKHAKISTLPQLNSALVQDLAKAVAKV
Sequence of CDK4/Cyclin D3 complex (P11802 whole entry, the tested form may be a part): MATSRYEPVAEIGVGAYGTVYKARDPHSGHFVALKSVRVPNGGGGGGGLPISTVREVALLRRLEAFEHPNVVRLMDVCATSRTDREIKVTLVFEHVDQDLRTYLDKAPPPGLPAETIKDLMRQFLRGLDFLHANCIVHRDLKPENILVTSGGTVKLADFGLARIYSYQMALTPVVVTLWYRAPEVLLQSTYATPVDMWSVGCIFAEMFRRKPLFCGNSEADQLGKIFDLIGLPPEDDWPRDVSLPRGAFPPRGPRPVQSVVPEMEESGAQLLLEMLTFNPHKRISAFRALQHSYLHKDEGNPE
Sequence of CDK4/Cyclin D3 complex (P30281 whole entry partner, the tested form may be a part): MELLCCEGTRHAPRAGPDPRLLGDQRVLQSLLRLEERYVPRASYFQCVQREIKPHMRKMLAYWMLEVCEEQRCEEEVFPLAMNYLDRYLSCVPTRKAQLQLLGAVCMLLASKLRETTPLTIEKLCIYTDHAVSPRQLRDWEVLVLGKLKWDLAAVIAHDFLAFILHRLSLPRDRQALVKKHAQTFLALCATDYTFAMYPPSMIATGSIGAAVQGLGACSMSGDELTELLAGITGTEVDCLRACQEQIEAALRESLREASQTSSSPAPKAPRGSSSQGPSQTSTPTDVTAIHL
T2 sequence (P06239 223-509 P223M/C224D): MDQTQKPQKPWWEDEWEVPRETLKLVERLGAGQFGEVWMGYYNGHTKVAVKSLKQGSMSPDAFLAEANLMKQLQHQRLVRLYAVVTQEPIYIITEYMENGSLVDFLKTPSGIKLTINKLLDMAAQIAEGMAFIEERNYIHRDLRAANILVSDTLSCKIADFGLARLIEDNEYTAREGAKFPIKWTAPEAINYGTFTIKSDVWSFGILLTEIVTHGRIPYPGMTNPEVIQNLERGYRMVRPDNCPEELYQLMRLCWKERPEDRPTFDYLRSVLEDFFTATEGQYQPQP
Sequence of phosphorylated VEGF-R2Δ50 (FLVK-P) (P35968 with tags, fused parts or gaps DEL940-989/E990V limits assumed): as the sequence (P35968 with tags, fused parts or gaps DEL940-989/E990V limits assumed) above

## Oc1cccc(Oc2ccc3c(/C=C/c4ccccc4)n[nH]c3c2)c1 [Example 9(a), 3-(E-styryl)-6-[3-hydroxyphenoxy]-1H-indazole]
[1]; Table 1
  Ki: 400 nM
[2]
  Ki: 162 nM
[3]
  Ki: 2.4 nM
[4]
  Ki: 16 nM
[5]
  Ki: 1700 nM

## O=C(c1cccc(NC(=O)c2ccno2)c1)c1ccc2c(/C=C/c3ccccc3)n[nH]c2c1 [Example 19(l)]
[6]; [13]
  IC50: 100 nM
[7]
  inhibition at 1 µM: 88%
[2]
  inhibition at 1 µM: 36%
[3]
  Ki: 0.72 nM
[4]
  Ki: 4.7 nM

## C(=C\c1n[nH]c2cc(-c3ccncc3)ccc12)/c1ccccc1 [Example 27(f)]
[8]
  Ki: 223 nM
[1]; Table 3
  Ki: 350 nM
[9]
  Ki: 3300 nM
[5]
  Ki: 780 nM

## Cc1cccc(/C=C/c2n[nH]c3cc(-c4ccncc4)ccc23)c1 [Example 29(b), 6-Pyrid-4-yl-3-E-[2-(3-methylphenyl)ethenyl]-1H-indazole]
[8]
  Ki: 900 nM
[9]
  Ki: 3000 nM
[5]
  Ki: 3900 nM

## COc1cccc(/C=C/c2n[nH]c3cc(-c4ccncc4)ccc23)c1 [Example 29(e), 6-Pyrid-4-yl-3-E-[2-(3-methoxyphenyl)ethenyl]-1H-indazole]
[8]
  Ki: 593 nM
[1]; Table 3
  Ki: 74 nM
[9]
  Ki: 1400 nM
[5]
  Ki: 2000 nM

## Fc1cccc(/C=C/c2n[nH]c3cc(-c4ccncc4)ccc23)c1 [Example 29(g), 6-Pyrid-4-yl-3-E-[2-(3-fluorophenyl)ethenyl]-1H-indazole]
[8]
  Ki: 390 nM
[1]; Table 3
  Ki: 68 nM
[9]
  Ki: 1400 nM
[5]
  Ki: 1100 nM

## Fc1ccccc1/C=C/c1n[nH]c2cc(-c3ccncc3)ccc12 [Example 29(h), 6-Pyrid-4-yl-3-E-[2-(2-fluorophenyl)ethenyl]-1H-indazole]
[8]
  Ki: 1300 nM
[1]; Table 3
  Ki: 140 nM
[9]
  Ki: 3000 nM
[5]
  Ki: 2200 nM

## C(=C\c1n[nH]c2cc(-c3ccncc3)ccc12)/c1ccc2c(c1)OCO2 [Example 29(r), 6-Pyrid-4-yl-3-E-[2-(3,4-methylenedioxyphenyl)ethenyl]-1H-indazole]
[8]
  Ki: 66 nM
[1]; Table 3
  Ki: 72 nM
[9]
  Ki: 1300 nM
[5]
  Ki: 1100 nM

## O=C(c1cccc(NC(=O)c2ccccn2)c1)c1ccc2c(/C=C/c3ccccn3)n[nH]c2c1 [Example 41(aa), 6-[3-(Pyridin-2-ylcarboxamido)benzoyl]-3-E-[2-(pyridin-2-yl)ethenyl]-1H-indazole]
[6]; [13]
  IC50: 5.2 nM
[6]; read-out: HUVEC IC50
  IC50: 1 nM
[7]
  inhibition at 1 µM: 37%
[2]
  inhibition at 1 µM: 49%
[3]
  Ki: 0.11 nM
[10]; [14]
  AUClast: 6659 ng·h/mL
  plasma half-life (T1/2): 2.1 h
[10]; [15]
  AUClast: 289 ng·h/mL
  plasma half-life (T1/2): 0.9 h
[10]; [16]
  concentration at 7 h: 124 ng/mL
[10]; [17]
  concentration at 7 h: 5 ng/mL

## CCCn1nc(C)cc1C(=O)Nc1cc(C(=O)c2ccc3c(/C=C/c4ccccn4)n[nH]c3c2)ccc1C [Example 41(ii), 6-[3-((1-n-Propyl-3-methyl-1H-pyrazol-5-yl)carboxamido)-4-methylbenzoyl]-3-E-[2-(pyridin-2-yl)ethenyl]-1H-indazole]
[6]; [13]
  IC50: 13 nM
[7]
  Ki: 11 nM
[2]
  inhibition at 1 µM: 18%
[3]; read-out: FLVK % inhibition
  inhibition at 0.05 µM: 57%
[10]; [18]
  AUClast: 7094 ng·h/mL
  Cmax: 1826 ng/mL
  plasma half-life (T1/2): 2.3 h
[10]; [19]
  concentration at 7 h: 346 ng/mL

## Cc1cnccc1C(=O)Nc1cccc(C(=O)c2ccc3c(/C=C/c4ccccn4)n[nH]c3c2)c1 [Example 41(j), 6-[3-((3-Methylpyridin-4-yl)carboxamido)benzoyl]-3-E-[2-(pyridin-2-yl)ethenyl]-1H-indazole]
[6]; [13]
  IC50: 7.7 nM
[7]
  inhibition at 1 µM: 41%
[2]
  inhibition at 1 µM: 16%
[3]; read-out: FLVK % inhibition
  inhibition at 0.05 µM: 98%
[10]; [18]
  AUClast: 1476 ng·h/mL
  plasma half-life (T1/2): 1.3 h
[10]; [19]
  concentration at 7 h: 17 ng/mL

## Cc1cc(C(=O)Nc2cc(C(=O)c3ccc4c(/C=C/c5ccccn5)n[nH]c4c3)c(C)cc2C)n(C)n1 [Example 41(mm), 6-[2,4-Dimethyl-5-((1,3-dimethyl-1H-pyrazol-5-yl)carboxamido)benzoyl]-3-E-[2-(pyridin-2-yl)ethenyl]-1H-indazole]
[11]
  Initial Evaluation: + (one plus being detectable regression judged to be approximately 25 percent or less)
[12]
  % remain (HLM, 2 h): 94%
[10]; [18]
  AUClast: 2261 ng·h/mL
  Cmax: 852 ng/mL
  plasma half-life (T1/2): 2.5 h
[10]; [19]
  concentration at 7 h: 127 ng/mL

## O=C(Nc1cccc(C(=O)c2ccc3c(/C=C/c4ccccn4)n[nH]c3c2)c1)c1ccccc1 [Example 42(a), 6-(3-Benzamidobenzoyl)-3-E-[2-(pyridin-2-yl)ethenyl]-1H-indazole]
[7]
  Ki: 65 nM
[2]
  Ki: 53 nM
[3]
  Ki: 0.046 nM
[12]
  % remain (HLM, 2 h): 92%
[10]; [14]
  AUClast: 19899 ng·h/mL
  plasma half-life (T1/2): 5.0 h
[10]; [15]
  AUClast: 8384 ng·h/mL
  plasma half-life (T1/2): 2.0 h
[10]; [16]
  concentration at 7 h: 1640 ng/mL
[10]; [17]
  concentration at 7 h: 341 ng/mL

## C(=N\n1cccc1)/c1n[nH]c2cc(-c3ccncc3)ccc12 [Example 51, 6-Pyrid-4-yl-3-E-(N-(pyrrol-1-yl)iminomethyl)-1H-indazole]
[8]
  Ki: 146 nM
[1]; Table 3
  Ki: 87 nM
[9]; compound concentration 1 μM
  inhibition at 1 µM: 84%
[5]; read-out: CDK4 % inhibition
  inhibition at 1 µM: 79%

## C(=C\c1n[nH]c2cc(-c3ccnc4[nH]ncc34)ccc12)/c1ccccc1 [Example 52(a), 6-(7-Azaindazol-4-yl)-3-E-styryl-1H-indazole]
[8]; compound concentration 1 μM
  inhibition at 1 µM: 39%
[3]; read-out: FLVK % inhibition
  inhibition at 1 µM: 60%

## O=C(Nc1ccc(O)cc1)c1ccc2c(-c3nc4ccccc4[nH]3)n[nH]c2c1 [Example 53(a), 3-(1H-Benzoidazol-2-yl)-N-(4-hydroxyphenyl)-1H-indazole-6-carboxamide]
[8]
  Ki: 24000 nM
[1]; Table 3
  Ki: 301 nM
[9]; @ 5 μM
  inhibition at 5 µM: 13%
[5]; read-out: CDK4 % inhibition
  inhibition at 5 µM: 28%
